Results taken from PubChem BioAssay (NCI).
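GI50 = concentration required for 50% inhibition of growth. TGI is the concentration that stops growth completely.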

How the values were obtained:
Assay in all cases: NCI tumour cell line growth inhibition, 384-well format
[1] = test system: T-47D breast
[2] = test system: MOLT-4 leukemia
[3] = test system: SNB-19 CNS
[4] = test system: HOP-92 NSCLC
[5] = test system: NCI-H322M lung
[6] = test system: SK-MEL-5 melanoma
[7] = test system: TK-10 renal
[8] = test system: SNB-75 CNS
[9] = test system: SF-295 CNS
[10] = test system: CCRF-CEM leukemia
[11] = test system: OVCAR-5 ovarian
[12] = test system: HCC-2998 colon
[13] = test system: UACC-257 melanoma
[14] = test system: OVCAR-4 ovarian
[15] = test system: 786-0 renal
[16] = test system: MDA-MB-231 breast
[17] = test system: NCI-H226 lung
[18] = test system: MALME-3M melanoma
[19] = test system: PC-3 prostate
[20] = test system: RXF 393 renal
[21] = test system: LOX IMVI melanoma
[22] = test system: KM12 colon
[23] = test system: A498 renal
[24] = test system: SW-620 colon
[25] = test system: HL-60(TB) leukemia
[26] = test system: UO-31 renal
[27] = test system: EKVX NSCLC
[28] = test system: NCI-H460 NSCLC
[29] = test system: SN12C renal
[30] = test system: SF-268 CNS
[31] = test system: UACC-62 melanoma
[32] = test system: BT-549 breast
[33] = test system: SF-539 CNS
[34] = test system: ACHN renal
[35] = test system: SK-OV-3 ovarian
[36] = test system: SK-MEL-28 melanoma
[37] = test system: HS 578T breast
[38] = test system: HT29 colon
[39] = test system: CAKI-1 renal
[40] = test system: NCI/ADR-RES ovarian
[41] = test system: NCI-H522 lung
[42] = test system: RPMI-8226 leukemia
[43] = test system: U251 glioblastoma
[44] = test system: NCI-H23 lung
[45] = test system: HCT-15 colon
[46] = test system: OVCAR-8 ovarian
[47] = test system: MDA-MB-435 melanoma
[48] = test system: MCF7 breast
[49] = test system: DU-145 prostate
[50] = test system: HOP-62 NSCLC
[51] = test system: K-562 leukemia
[52] = test system: A549 NSCLC
[53] = test system: OVCAR-3 ovarian
[54] = test system: IGROV1 ovarian
[55] = test system: HCT-116 colon
[56] = test system: M14 melanoma
[57] = test system: COLO 205 colon

CNC(=O)c1ccccc1Nc1cc(Nc2ccc(N3CCOCC3)cc2OC)ncc1C(F)(F)F
GI50 [1]: 9.99 µM
TGI [1]: 23.3 µM
GI50 [2]: 0.969 µM
TGI [2]: 10.5 µM
GI50 [3]: 10.9 µM
TGI [3]: > 100 µM
GI50 [4]: 1.02 µM
TGI [4]: 10.2 µM
GI50 [5]: 5.28 µM
TGI [5]: 46.2 µM
GI50 [6]: 0.767 µM
TGI [6]: 18 µM
GI50 [7]: 7.3 µM
TGI [7]: 32 µM
GI50 [8]: 4.25 µM
TGI [8]: 21.4 µM
GI50 [9]: 2.12 µM
TGI [9]: 38.7 µM
GI50 [10]: 0.722 µM
TGI [10]: 11.5 µM
GI50 [11]: 0.66 µM
TGI [11]: 27.5 µM
GI50 [12]: 0.654 µM
TGI [12]: 15.8 µM
GI50 [13]: 0.397 µM
TGI [13]: 23.3 µM
GI50 [14]: 16.1 µM
TGI [14]: > 100 µM
GI50 [15]: 2.75 µM
TGI [15]: 19.8 µM
GI50 [16]: 2.76 µM
TGI [16]: 49.2 µM
GI50 [17]: 0.876 µM
TGI [17]: > 100 µM
GI50 [18]: 0.303 µM
TGI [18]: 15.1 µM
GI50 [19]: 15.9 µM
TGI [19]: > 100 µM
GI50 [20]: 2.82 µM
TGI [20]: 14 µM
GI50 [21]: 1.23 µM
TGI [21]: 12.1 µM
GI50 [22]: 0.523 µM
TGI [22]: 8.06 µM
GI50 [23]: 11 µM
TGI [23]: 28.3 µM
GI50 [24]: 0.658 µM
TGI [24]: 12.6 µM
GI50 [25]: 0.375 µM
TGI [25]: 1.43 µM
GI50 [26]: 2.9 µM
TGI [26]: 16.9 µM
GI50 [27]: 0.653 µM
TGI [27]: 11.8 µM
GI50 [28]: 0.316 µM
TGI [28]: 10.6 µM
GI50 [29]: 3.31 µM
TGI [29]: 27.1 µM
GI50 [30]: 0.143 µM
TGI [30]: 1.67 µM
GI50 [31]: 0.354 µM
TGI [31]: 14.4 µM
GI50 [32]: 2.82 µM
TGI [32]: 9.86 µM
GI50 [33]: 1.7 µM
TGI [33]: 16.8 µM
GI50 [34]: 5.62 µM
TGI [34]: 69.7 µM
GI50 [35]: 5.44 µM
TGI [35]: 41.9 µM
GI50 [36]: 2 µM
TGI [36]: 16.7 µM
GI50 [37]: 2.78 µM
TGI [37]: 10.1 µM
GI50 [38]: 0.416 µM
TGI [38]: 14.1 µM
GI50 [39]: 6.33 µM
TGI [39]: 21 µM
GI50 [40]: 1.52 µM
TGI [40]: 4.64 µM
GI50 [41]: 0.877 µM
TGI [41]: 20.4 µM
GI50 [42]: 0.35 µM
TGI [42]: 3.3 µM
GI50 [43]: 4.4 µM
TGI [43]: 48 µM
GI50 [44]: 0.277 µM
TGI [44]: 9.47 µM
GI50 [45]: 2.88 µM
TGI [45]: 34.2 µM
GI50 [46]: 4.08 µM
TGI [46]: 19.8 µM
GI50 [47]: 0.752 µM
TGI [47]: > 100 µM
GI50 [48]: 0.447 µM
TGI [48]: 18.5 µM
GI50 [49]: 1.97 µM
TGI [49]: 24.3 µM
GI50 [50]: 2.62 µM
TGI [50]: 51.3 µM
GI50 [51]: 2.69 µM
TGI [51]: > 100 µM
GI50 [52]: 0.371 µM
TGI [52]: 13 µM
GI50 [53]: 4.45 µM
TGI [53]: 37.9 µM
GI50 [54]: 0.229 µM
TGI [54]: 12.4 µM
GI50 [55]: 0.632 µM
TGI [55]: 13.2 µM
GI50 [56]: 0.233 µM
TGI [56]: 11.1 µM
GI50 [57]: 0.309 µM
TGI [57]: 1.85 µM
